Experimental data published in a melting point compilation (Tetko et al.; mined from patent text by program, amines drawn as free bases though some values may be those of a salt).

| SMILES | melting point |
| --- | --- |
| CCN1C=C(C(=O)O)C(=O)CC1c1cccnc1 (stereo not given) | 197 to 199 °C |
| Cn1c(=O)cc(-c2cccc(Cl)c2)c2cc(C(C)(c3ccc(Cl)cc3)n3ccnc3)ccc21 (stereo not given) | 120 °C |
| O=C(Nc1nc2cc(O)ccc2[nH]1)NC1CC1 | 320 °C |
| C[C@H]1CCCC(C)(C)[C@@H]1[C@H](O)c1ccc(C(F)(F)F)c(F)c1 | 71 to 73 °C |
| CCOC(=O)c1ccc(CCC2CC(n3c4ccccc4c4ccccc43)c3ccccc3N2C(=O)c2ccc(OC)c(OC)c2)cc1 (stereo not given) | 247 to 249 °C |
| CC(=O)Nc1nc2c(Nc3ncnc4cc(Cl)ccc34)cccc2s1 | 230 °C |
| CCCCCc1c(C(C)C)nc(C(C)C)c(CO)c1-c1cccc(O)c1 | 121 to 122 °C |
| CCCn1nc(C)c(NC(C)=O)c1C#N | 129 to 131 °C |
| COC(=O)c1ccc(-n2c(C)ccc2C#N)cc1 | 118 to 119 °C |
| CS(=O)(=O)OCCc1c2ccccc2n2c1[nH]c(=O)c1ccccc12 | 196 to 198 °C |
| Cc1cc(C(=O)N(C2CCCCC2)C2CCCC2)ccc1Br | 125 to 127 °C |
| N#Cc1ccc(OCCCN2CCC(C(O)(c3ccc(F)cc3)c3ccc(F)cc3)CC2)cc1 | 107 to 108 °C |
| O=C1NC(O)c2cccn2-c2sccc21 (stereo not given) | 166 °C |
| Cc1cccc(-c2nc(NC(=O)Cc3ccccc3)sc2-c2ccnc(NC(=O)Cc3ccccc3)n2)c1 | 110 to 113 °C |
| COC(=O)c1cccc(-c2c(C)[nH]c(=S)n2Nc2cccc(C)c2)c1 | 164 to 166 °C |
| O=[N+]([O-])c1cccc(OCCc2c[nH]cn2)c1 | 174 to 178 °C |
| Cc1nn(-c2ccc(F)cc2)cc1C(=O)Nc1ccc(OCC(C)C)c(C#N)c1 | 179 to 180 °C |
| Clc1cccc(Oc2ncccc2Br)c1 | 88 to 90 °C |
| Clc1cc2nc3c4ccccc4c4ccccc4c3nc2cc1Cl | 263 to 264 °C |
| CC(C)NC(=O)NCCSCc1ccc(CN(C)C)o1 | 65 to 67 °C |
| COc1cc(C)ccc1C(=O)O | 103 to 104 °C |
| O=C(CBr)c1cc2c(Cl)cccc2s1 | 116 to 118 °C |
| CC(C)(CNc1ccnc2cc(Cl)ccc12)NCc1cccc(C(F)(F)F)c1 | 156 to 157 °C |
| c1ccc(CN2CCC3(CC2)SC(c2ccccc2)c2ccccc23)cc1 (stereo not given) | 144 to 145 °C |

| SMILES | melting point |
| --- | --- |
| CC(=O)Nc1cccc(-n2ccnc2C)c1 | 238 to 240 °C |
| O=C1c2c(O)ccc(O)c2-c2nn(CC(O)CO)c3ccc(NCCNCCO)c1c23 (stereo not given) | 184 to 188 °C |
| CC(=O)N1CCNC1=NC(c1ccccc1)c1ccccc1 | 234 to 236 °C |
| C#CC(C)(C)OC(=O)N1CCNCC1 | 35 to 38 °C |
| Cc1cccc2nc(C)n(-c3ccccc3)c12 | 107 to 109 °C |
| Cc1ccc(C(=O)Nc2nc(=O)c3ccccc3n2C)cc1 | 235 to 238 °C |
| COc1ccc(-c2cc(C=O)cc3ccoc23)cc1 | 79 to 80 °C |
| CCn1ncc2c(NCC3CCCCC3)c3cc(Br)ccc3nc21 | 158 to 160 °C |
| CCn1cc(C(=O)NN)c(=O)c2ccc(-c3ccncc3)cc21 | 274 to 275 °C |
| CCCc1nnc(/C=C/c2nc(-c3ccccc3)oc2COc2ccc(OCc3nc(-c4ccccc4)oc3C)cc2)o1 | 119 to 120 °C |
| CCCN1CCCC1CNC(=O)c1c(OC)ccc(Br)c1OC (single isomer, unassigned; (-)) | 103 to 104 °C |
| CCc1ccc2cc(C)c(-n3cncn3)nc2c1 | 72 to 73 °C |
| OC(CCN1CCN(c2ccccc2)CC1)COc1cccc(C(F)(F)F)c1 (stereo not given) | 73 to 74 °C |
| CN(C)c1ccc(C2(c3ccc(N(C)C)cc3Cl)OC(=O)c3cc(N(C)C)ccc32)cc1 (stereo not given) | 233 to 234 °C |
| CC(C)c1cc2ncccc2cc1Oc1cnc(N)nc1N | 207 to 208 °C |
| CC1N=C(c2ccccc2)c2cc(Cl)ccc2NC1=O (stereo not given) | 224 °C |
| COc1ccc(Oc2c(N)cc(C(=O)O)cc2S(N)(=O)=O)cc1 | 260 to 261 °C |
| CC(=O)Oc1c(Cc2ccccc2)ccc2ccccc12 | 67 to 69 °C |
| O=C(O)CC12CC3CC(CC(Cl)(C3)C1)C2 | 182 to 184 °C |
| CCCCCCCCCCCCCCCCCCOc1ccc2c(c1)C(=O)c1ccc(OCCCCCCCCCCCCCCCCCC)cc1C2=O | 112 to 122 °C |
| CCOP(=O)(CN(CCCc1ccccc1)C(=O)Cc1cc(C(C)(C)C)c(O)c(C(C)(C)C)c1)OCC | 134 to 136 °C |
| Cc1ccc(-c2oc(C(F)(F)F)nc2-c2ccccc2)cc1S(N)(=O)=O | 156 to 157 °C |
| C[C@@H](Nc1ncnc2[nH]c(-c3ccc(CCl)cc3)cc12)c1ccccc1 | > 320 °C |
| Cc1cc(-c2cc(C(=O)O)c(=O)n(Cc3ccccc3Cl)n2)ccc1F | 185 to 186 °C |

| SMILES | melting point |
| --- | --- |
| CSC(=S)N1Cc2c(c3ccccc3n2C)CC1C(=O)O (stereo not given) | 212 to 213 °C |
| C[Si](C)(C)O[Si]1(O[Si](C)(C)C)O[Si](O[Si](C)(C)C)(O[Si](C)(C)C)O[Si](O[Si](C)(C)C)(O[Si](C)(C)C)O1 | 103 °C |
| Fc1cccc(C=Cc2nccc3ccccc23)c1 | 89 to 99 °C |
| COc1ccc2c(C)c(CCN3CCN(c4ccccc4OC)CC3)c(=O)oc2c1 | 129 to 130 °C |
| Cc1nc(C=Cc2nc3ccc(F)cc3c(=O)n2-c2ccccc2C)cs1 | 211 to 212 °C |
| CCCCCCCCOC(C)c1ccc(-c2ccc(C(=O)O)cc2)cc1 (single isomer, unassigned; (+)) | 139 to 140 °C |
| CS(=O)(=O)N(c1ccc(Cl)c(C(=O)Nc2cccc3c4c(oc23)CCCC4)c1Cl)S(C)(=O)=O | 237 to 238 °C |
| O=C(O)c1ccccc1S(=O)(=O)c1cc(Cl)ccc1C(=O)O | 276 to 277 °C |
| Cn1cc(Br)cc(Nc2ccc(C3CNC3)cn2)c1=O | 123 to 124 °C |
| CCC(C)C(=O)c1cn(C)cc(-c2cccc(C(F)(F)F)c2)c1=O (stereo not given) | 109 to 111 °C |
| CCC1(O)CCC2(C)C(CCC3C4CCC(C(C)=O)C4(C)CC(=O)C32)C1 (stereo not given) | 129 °C |
| C=C1CS(=O)C2C(NC(=O)COc3ccccc3)C(=O)N2C1C(=O)OCc1ccc([N+](=O)[O-])cc1 (stereo not given) | 200 to 201 °C |
| O=C(Nc1nnc(CC2CC2)o1)C1c2ccccc2Oc2ccccc21 | 140 to 141 °C |
| Cc1ccc(SCCC(=O)c2cc(O)c(O)c([N+](=O)[O-])c2)cc1 | 160 to 161 °C |
| CC(Oc1ccc(OC(C)C(=O)O)cc1)C(=O)O (stereo not given) | 235 to 240 °C |
| COc1ccc2c(c1)c1c3c(c(-c4ccccc4Cl)cc1n2CCC#N)C(=O)NC3=O | 287 to 288 °C |
| CC(C)(C)CC(=O)Nc1ccc2oc3c(c2c1)CCCC3 | 164 to 165 °C |
| O=C(NC(=O)C(Br)CBr)Nc1ccc(Cl)cc1 (stereo not given) | 162 to 163 °C |
| O=C(O)CCCc1cc2nc(Cl)ccc2n1S(=O)(=O)c1c(F)cccc1F | 192 to 195 °C |
| O=c1c2c(c1=O)NCCCN2 | 335 °C |
| Cc1ccc2c(c1)C1=NN(c3ccc(OCCCN4CCCCC4)cc3)C(=O)CC1CC2 (stereo not given) | 171 to 172 °C |
| COc1cc(-c2ccc(N)cc2C(=O)NCCNC(=O)c2cc(N)ccc2-c2cc(OC)c(OC)c(OC)c2)cc(OC)c1OC | > 250 °C |
